Data published in publication PMC11820700, “Antioxidant, Enzyme-Inhibitory and Antimicrobial Activity of Underutilized Wheat and Maize Crop Residues” (Plants, 2025).
pIC50: −log10 of the molar value. Values after ≈ are worked out from the molar mass of the structure shown. Read-outs that look alike come from different tables or passages of the source. Marks after values point to notes of the source that are not given here.

Experiments:
[1] = DPPH free radical scavenging assay
[2] = molecular target: α-glucosidase from bakers’ yeast (Saccharomyces cerevisiae, UniProt P53341); assay type: biochemical
[3] = molecular target: acetylcholinesterase (AChE) from Electrophorus electricus (Electrophorus electricus, UniProt O42275); assay: biochemical
[4] = molecular target: T1, α-amylase from porcine pancreas (Sus scrofa, UniProt P00690); assay: biochemical
T1 construct: purchased Merck KGaA (Darmstadt, Germany) type VI-B (catalogue number not given); host or cells: porcine pancreas
T1 sequence (P00690 16-511): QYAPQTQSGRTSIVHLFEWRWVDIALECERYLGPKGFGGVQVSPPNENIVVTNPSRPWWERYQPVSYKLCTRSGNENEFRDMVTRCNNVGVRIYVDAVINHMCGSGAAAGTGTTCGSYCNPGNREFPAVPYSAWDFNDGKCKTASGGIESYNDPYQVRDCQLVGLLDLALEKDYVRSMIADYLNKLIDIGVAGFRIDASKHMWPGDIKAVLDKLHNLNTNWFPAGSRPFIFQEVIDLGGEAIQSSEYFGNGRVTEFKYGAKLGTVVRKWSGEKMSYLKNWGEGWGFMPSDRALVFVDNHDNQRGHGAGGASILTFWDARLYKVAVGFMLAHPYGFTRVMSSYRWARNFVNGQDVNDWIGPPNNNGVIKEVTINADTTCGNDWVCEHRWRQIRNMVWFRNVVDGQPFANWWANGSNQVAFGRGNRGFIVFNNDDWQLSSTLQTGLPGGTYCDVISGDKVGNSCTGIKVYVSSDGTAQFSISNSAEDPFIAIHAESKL

[5] = molecular target: α-glucosidase; settings: cited from earlier work
[6] = test system: Klebsiella pneumoniae NCIMB 9111; assay: Broth microdilution MIC; assay type: cell-based; settings: 24 h
[7] = test system: Enterococcus faecalis ATCC 29212; assay: Broth microdilution MIC; assay type: cell-based; settings: 24 h
[8] = molecular target: α-amylase; settings: ref Jeong et al. (2012) [29], cited from earlier work
[9] = ABTS free radical scavenging assay
[10] = molecular target: butyrylcholinesterase (BChE) from equine serum (Equus caballus, UniProt P81908); assay: biochemical; assay type: biochemical
[11] = test system: Staphylococcus aureus ATCC 6538; assay: Broth microdilution MIC; assay type: cell-based; settings: 24 h, extracts 62.5–1000, compounds 31.25–500 µg/mL tested
[12] = FRAP ferric reducing power assay
[13] = test system: Salmonella abony NCTC 6017; assay: Broth microdilution MIC; assay type: cell-based
[14] = test system: Pseudomonas aeruginosa ATCC 9027; assay: Broth microdilution MIC; assay type: cell-based; settings: 24 h
[15] = test system: Escherichia coli ATCC 8739; assay: Broth microdilution MIC; assay type: cell-based; settings: 24 h
[16] = test system: methicillin-resistant Staphylococcus aureus (MRSA); settings: ref Alves et al. (2013) [45]; cited from earlier work
[17] = test system: clinical isolates of both Gram-positive and Gram-negative bacteria; parameters: method as in Alves et al. (2013) [45]; settings: ref Alves et al. (2013) [45]; cited from earlier work
[18] = TRC (total reducing capacity) ferric reducing power assay; settings: L-ascorbic acid equivalents
[19] = concentrations 50–1000 µg/mL; ref Jeong et al. (2010) [24]; cited from earlier work
[20] = test system: Bacillus subtilis ATCC 6633; assay: Broth microdilution MIC; assay type: cell-based; settings: 24 h
[21] = test system: Candida albicans ATCC 10231; assay: Broth microdilution MIC; assay type: cell-based; settings: 48 h

Chain of butyrylcholinesterase (BChE) from equine serum (P81908 whole entry, looked up): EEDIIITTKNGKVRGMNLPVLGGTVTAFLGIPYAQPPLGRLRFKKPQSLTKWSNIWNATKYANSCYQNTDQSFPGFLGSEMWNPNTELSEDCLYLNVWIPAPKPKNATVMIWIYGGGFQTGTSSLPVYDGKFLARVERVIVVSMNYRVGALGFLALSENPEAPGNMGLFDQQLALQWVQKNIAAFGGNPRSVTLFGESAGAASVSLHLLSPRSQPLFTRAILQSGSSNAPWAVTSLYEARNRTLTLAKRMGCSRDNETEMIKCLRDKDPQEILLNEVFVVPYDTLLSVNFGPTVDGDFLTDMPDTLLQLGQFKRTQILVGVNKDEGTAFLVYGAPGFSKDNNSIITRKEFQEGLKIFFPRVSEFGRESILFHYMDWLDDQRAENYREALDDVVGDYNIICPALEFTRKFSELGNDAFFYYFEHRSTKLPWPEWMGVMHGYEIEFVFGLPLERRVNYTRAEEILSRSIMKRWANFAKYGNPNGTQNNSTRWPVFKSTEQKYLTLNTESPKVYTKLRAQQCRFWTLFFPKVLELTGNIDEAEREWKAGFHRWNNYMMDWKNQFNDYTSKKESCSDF
Chain of acetylcholinesterase (AChE) from Electrophorus electricus (O42275 24-633 limits assumed): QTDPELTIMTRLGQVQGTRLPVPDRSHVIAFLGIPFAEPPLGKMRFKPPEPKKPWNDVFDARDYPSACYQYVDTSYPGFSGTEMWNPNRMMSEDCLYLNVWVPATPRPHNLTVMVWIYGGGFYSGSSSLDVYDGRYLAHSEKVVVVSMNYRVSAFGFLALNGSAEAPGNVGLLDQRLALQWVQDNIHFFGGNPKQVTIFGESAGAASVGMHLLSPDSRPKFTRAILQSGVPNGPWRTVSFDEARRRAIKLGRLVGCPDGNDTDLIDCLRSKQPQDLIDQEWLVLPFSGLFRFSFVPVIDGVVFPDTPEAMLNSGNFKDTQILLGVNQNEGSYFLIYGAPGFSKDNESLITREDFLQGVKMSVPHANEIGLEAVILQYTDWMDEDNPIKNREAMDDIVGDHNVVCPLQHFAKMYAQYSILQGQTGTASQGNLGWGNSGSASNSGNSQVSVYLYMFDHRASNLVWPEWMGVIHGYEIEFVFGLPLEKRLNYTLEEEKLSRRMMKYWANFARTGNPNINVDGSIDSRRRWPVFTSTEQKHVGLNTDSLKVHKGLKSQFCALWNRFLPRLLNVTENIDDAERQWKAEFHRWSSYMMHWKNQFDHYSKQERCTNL
Chain of α-glucosidase from bakers’ yeast (P53341 whole entry, looked up): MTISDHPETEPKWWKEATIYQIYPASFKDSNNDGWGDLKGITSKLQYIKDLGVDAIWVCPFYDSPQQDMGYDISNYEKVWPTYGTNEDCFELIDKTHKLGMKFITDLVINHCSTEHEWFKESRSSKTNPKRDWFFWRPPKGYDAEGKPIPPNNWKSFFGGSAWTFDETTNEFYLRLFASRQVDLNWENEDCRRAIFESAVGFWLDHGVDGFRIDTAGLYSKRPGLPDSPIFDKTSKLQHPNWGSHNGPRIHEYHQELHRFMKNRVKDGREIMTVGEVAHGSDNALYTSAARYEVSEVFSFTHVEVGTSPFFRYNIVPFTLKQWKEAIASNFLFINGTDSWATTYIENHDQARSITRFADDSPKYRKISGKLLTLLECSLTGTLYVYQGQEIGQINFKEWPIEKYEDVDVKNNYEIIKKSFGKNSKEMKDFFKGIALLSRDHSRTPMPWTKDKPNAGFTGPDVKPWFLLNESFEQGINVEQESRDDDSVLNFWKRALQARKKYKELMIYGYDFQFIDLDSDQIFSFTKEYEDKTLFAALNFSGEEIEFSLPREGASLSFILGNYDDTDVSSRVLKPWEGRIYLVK

In the case of COc1cc(/C=C/C(=O)O)ccc1O [FA, ferulic acid], the “DPPH IC50” value [1] was 0.0068 ± 0.0001 ^c mg/mL, the “α-glucosidase IC50” value [2] was 1.49 ± 0.18 ^a mg/mL and the “AChE IC50” value [3] was 4.10 ± 0.37 ^c mg/mL. The “α-amilase IC50” value [4] was 3.35 ± 0.85 ^b mg/mL, the “α-glucosidase IC50” value ([5]; mg/mL figure given in parentheses beside mM, ref Jeong et al. (2012) [29]) was 950 µg/mL and the pIC50 ([5]; ref Jeong et al. (2012) [29]) was 2.31. For the same compound, the “α-glucosidase IC50” value ([5]; ref Nile and Park (2014) [34]) was 251.4 µg/mL, the “Minimal Inhibitory Concentrations MICs” value [6] was >500 µg/mL and the “Minimal Inhibitory Concentrations MICs” value [7] was 125 µg/mL. The “α-amylase IC50” value ([8]; mg/mL figure given in parentheses beside mM) was 1840 µg/mL, the pIC50 [8] was 2.02 and the “ABTS IC50” value [9] was 0.0034 ± 0.0001 ^d mg/mL. The “BChE IC50” value [10] was 1.97 ± 0.08 ^c mg/mL, the “Minimal Inhibitory Concentrations MICs” value [11] was 62.5 µg/mL and the FRAP [12] was 2.02 ± 0.04 ^a µmol Fe^2+/g. For the same compound, the FRAP ([12]; listed as ferulic acid) was 2.02 µmol Fe^2+/g, the “Minimal Inhibitory Concentrations MICs” value [13] was >500 µg/mL and the “Minimal Inhibitory Concentrations MICs” value [14] was >500 µg/mL. The “Minimal Inhibitory Concentrations MICs” value [15] was >500 µg/mL, the MIC [16] was 500 µg/mL (≈ 2.57 mM) and the MIC [17] was ≥ 1000 µg/mL. The TRC [18] was 2467.90 ± 91.26 ^a mg L-AAE/g, the TRC ([18]; listed as ferulic acid) was 2467.90 mg L-AAE/g and the DPPH radical inhibition [19] was 84.3–92.3%. For the same compound, the “Minimal Inhibitory Concentrations MICs” value [20] was 62.5 µg/mL and the “Minimal Inhibitory Concentrations MICs” value [21] was >500 µg/mL.
